Results published in patent publication US20080146457A1, “METHOD FOR THE DETERMINATION OF CELL ACTIVATION” (priority 2003, published 2008).

Columns and labels:
Assay type in all cases: cell-based
Erk1/2 = assay: Phosphorylation status of Erk1/2 in PMA-treated Jurkat cells on double antibody array; conditions: PMA 0.1 to 1000 ng/ml, 10 minutes
p38 = assay: Level of phosphorylation of p38 in anisomycin-treated Jurkat cells on multiplex arrays
Protocol: (§1) Hybridization chambers were placed onto diaglass functionalized slides (EAT, Namur, Belgium) spotted with antibodies specific of the protein to be detected, in this case anti-Akt antibodies. The spotting was performed with a split pin or a pin and ring or a plain pin. Each spot contained between 0.5 and 10 nl depending on the type of pin used and its diameter.
(§2) The slides were washed 4×1 min in Washing Buffer (EAT, Namur, Belgium). The slides were then incubated for 1 h with 500 μl of a specific rabbit detection antibody against phospho-Akt diluted 500× in Blocking Buffer (EAT, Namur, Belgium). The slides were washed 4×1 min in Washing Buffer. The slides were then incubated for 45 min at room temperature with a conjugated antibody (anti-rabbit Cy3) diluted 1000× in Blocking Buffer. The slides were washed 4×1 min in Washing Buffer and then rinsed twice in water. The slides were scanned in a laser confocal scanner “ScanArray” (Packard, USA) at a resolution of 10 μm.
(§3) The assay was performed as described in Example 1, but two identical arrays were present on each slide. The capture antibodies spotted on the left and right arrays were the same, but the detection antibodies were either specific to the phospho-Akt (right arrays) or to the total Akt (left arrays). Four different mixes were prepared as follows: (1) 40 ng of purified Akt and 40 ng of purified phospho Akt; (2) 40 ng of purified Akt and 20 ng of purified phospho Akt; (3) 40 ng of purified Akt and 10 ng of purified phospho Akt; (4) 40 ng of purified Akt and 5 ng of purified phospho Akt. In this experiment, four slides were used. […] The intensity of the spots on each array was then quantified and the results clearly show decreasing signal intensities correlating with decreasing concentrations of phospho-Akt on the right arrays. The calculated ratios of phospho vs. total Akt directly relates to the known concentration used in the four different mixes.
(§4) Each slide contained 2 identical arrays. The two arrays were incubated with the same samples possibly containing the proteins to be detected. The left array was then incubated with a mixture of 7 detection antibodies directed against the 7 proteins to be detected. The right array was incubated with a mixture of 7 detection antibodies directed against the phospho-specific form of the 7 proteins to be detected. […] The samples consisted of each of the 7 proteins to be detected, in their non-phosphorylated or phosphorylated form, or combinations thereof.
(§5) The experiment was performed on slides containing a double array as presented in Example 4. […] The protein chips allowed to simultaneously quantify the level of phosphorylation of p38 and JNK1/2 due to the effect of anisomycin on cells.

JNK1/2 = assay: Level of phosphorylation of JNK1/2 in anisomycin-treated Jurkat cells on multiplex arrays
Protocol: as §1, §2, §3, §4, §5

[1] = 8 different concentrations of anisomycin

SMILES	amount of Erk1/2 (total protein) (Erk1/2)	levels of phosphorylation at threonine 185 and tyrosine 187 of Erk1/2 (Erk1/2)	level of phospho form of p38 (p38; [1])	level of total p38 (p38; [1])	ratio of Phospho vs. total forms of p38 (p38; anisomycin 1 μM)	ratio of Phospho vs. total forms of p38 (p38; anisomycin 100 μM)	level of phospho form of JNK1/2 (JNK1/2; [1])	level of total JNK1/2 (JNK1/2; [1])	ratio of Phospho vs. total forms of JNK1/2 (JNK1/2; anisomycin 0.01 μM)	ratio of Phospho vs. total forms of JNK1/2 (JNK1/2; anisomycin 1 μM)
CCCCCCCCCCCCCC(=O)O[C@@H]1[C@@H](C)[C@@]2(O)[C@@H](C=C(CO)C[C@]3(O)C(=O)C(C)=C[C@@H]23)[C@@H]2C(C)(C)[C@]12OC(C)=O [PMA, phorbol 12-myristate 13-acetate]	remains constant	increase with the amount of PMA	–	–	–	–	–	–	–	–
COc1ccc(C[C@H]2NC[C@H](O)[C@H]2OC(C)=O)cc1 [anisomycin]	–	–	increase with the anisomycin concentration	remain constant	0.33	1.0	increase with the anisomycin concentration	remain constant	0.33	0.88
